Measured values published in US20220008359A1, “COMBINATION ANTI-CANCER PRODUCTS AND METHODS” (priority 2020, published 2022).
Marks after values point to notes of the source that are not given here.

Test system: H1975 cells (wild type sensitive)
Assay: In-cell immunostaining of protein expression and phosphorylation, H1975 wild type cells
Type: cell-based, human
Set-up: HDAC 1 expression / HDAC 2 expression / HDAC 3 expression / HDAC 4 expression / HDAC 5 expression / HDAC 6 expression / HDAC 7 expression / HDAC 8 expression / HDAC 9 expression / HDAC 10 expression / HDAC 11 expression: scale not given here
Conditions: 6 h
Description: […] Cells were fixed in place 6 hours after treatment and immunostaining of single cells performed to determine the levels of each protein/phosphor-protein (n=3+/−SD). * p<0.05 less than vehicle control; # p<0.05 greater than vehicle control.
Assessments of protein expression and protein phosphorylation. Multi-channel fluorescence HCS microscopes perform true in-cell western blotting. Three independent cultures derived from three thawed vials of cells of a tumor were sub-cultured into individual 96-well plates. Twenty-four hours after plating, the cells are transfected with a control plasmid or a control siRNA, or with an empty vector plasmid or with plasmids to express various proteins. After another 24 hours, the cells are ready for drug exposure(s). At various time-points after the initiation of drug exposure, cells are fixed in place using paraformaldehyde and using Triton X100 for permeabilization. Standard immunofluorescent blocking procedures are employed, followed by incubation of different wells with a variety of validated primary antibodies and subsequently validated fluorescent-tagged secondary antibodies are added to each well. The microscope determines the background fluorescence in the well and in parallel randomly determines the mean fluorescent intensity of 100 cells per well.

[1] = 1975 WT, GZ17-6.02 2 mM final curcumin, pemetrexed 500 nM
[2] = 1975 WT, GZ17-6.02 2 mM final curcumin, pemetrexed 500 nM, vehicle 100%

Nc1nc2[nH]cc(CCc3ccc(C(=O)N[C@@H](CCC(=O)O)C(=O)O)cc3)c2c(=O)[nH]1 [PEM, Pemetrexed]
ERK2 expression [1]: 100 | HDAC 1 expression [1]: 99 | HDAC 2 expression [1]: 93 | HDAC 3 expression [1]: 100 | HDAC 4 expression [1]: 100 | HDAC 5 expression [1]: 98 | HDAC 6 expression [1]: 88 | HDAC 7 expression [1]: 98 | HDAC 8 expression [1]: 101 | HDAC 9 expression [1]: 99 | HDAC 10 expression [1]: 102 | HDAC 11 expression [1]: 101 | ATG5 [2]: 109% | Beclin1 [2]: 112% | CD95 [2]: 100% | CHOP [2]: 107% | ERBB1 [2]: 101% | ERBB2 [2]: 101% | ERBB3 [2]: 99% | ERBB4 [2]: 100% | ERK2 [2]: 99% | FAS-L [2]: 108% | GRP78 [2]: 112% | JAK2 [2]: 102% | P-AKT T308 [2]: 87* % | P-AMPKα T172 [2]: 105% | P-ATG13 S318 [2]: 104% | P-ATM S1980 [2]: 108% | P-B1 [2]: 88% | P-B2 [2]: 96% | P-B3 [2]: 95% | P-B4 [2]: 100% | P-ERK1/2 [2]: 95% | P-JAK2 [2]: 91% | P-NFκB S536 [2]: 85* % | P-PDGFRβ [2]: 90% | P-PERK T980 [2]: 103% | P-SRC Y416 [2]: 94% | P-SRC Y527 [2]: 109% | P-STAT3 Y705 [2]: 88% | P-STAT5 Y694 [2]: 91% | P-ULK1 S317 [2]: 105% | P-ULK1 S757 [2]: 91% | P-c-MET [2]: 94% | P-c-MT [2]: 94% | P-eIF2α S51 [2]: 103% | P-mTOR S2448 [2]: 96% | P-mTOR S2481 [2]: 91% | PDGFRβ [2]: 100% | PP1 [2]: 109% | c-KIT [2]: 99% | c-MET [2]: 100% | p70 S6K [2]: 101% | p70 S6K T389 [2]: 99% | BCL-XL expression (H1975 WT, VEH = 100): 87* | ERK2 expression (H1975 WT, VEH = 100): 100 | FLIP-s expression (H1975 WT, VEH = 100): 101 | MCL-1 expression (H1975 WT, VEH = 100): 81*
